{
  "source": "patent US20040029965A1",
  "about": "“Formulations for reducing or eliminating toxicity of enviromental hormones containing ursodeoxycholic acid” (priority 2000, published 2004)",
  "key": {"C57B1/6J mice [1]": {"test_system": "C57B1/6J mice", "assay": "Water uptake of mice after a single subcutaneous injection of TCDD", "assay_type": "in vivo", "design": "unit not given here", "method": "(§1) Male C57B1/6J mice of 5 weeks old having the average weight of 18-22 g which had been bred in CRJ (Charles River in Japan) were purchased and used in this example as experimental animals. Those mice were acclimated under the constant breeding condition, i.e. the temperature of 24±1° C., the humidity of 60±10% and the light and darkness cycle of 12 hours, for one week and thereafter, utilized in the experiment.\n(§2) The Experimental animals were supplied with Purina powdered feed (purchased from Hae Eun Trade) and supplied with water ad libitum. All the animals were weighed twice a week during experimentation.\n(§3) 2,3,7,8-tetrachlorodibenzo-p-dioxin (TCDD) dissolved in toluene (purity of 95% or more as a result of gas chromatography analysis), manufactured by Chem. Services Inc. in USA, was volatilized with nitrogen to obtain powder. The obtained powder was dissolved in a mixed solvent containing acetone and corn oil with a volume ratio of 1:6. The resulting solution each containing 110, 27.5 and 6.9 μg/kg of TCDD was subcutaneously injected to mice at a volume of 5 ml per body weight. […] The mice were supplied with the feed from 10 days before (pre-administration) to 60 days after administration of TCDD (post-administration).\n(§4) The results are expressed as Mean±Standard Deviation values. For statistical analysis of the body weight, feed and water uptake, biochemical findings, hematological findings and the weight of organ in an acute toxicity test, verification was performed by one way analysis of variance (ANOVA) in case of equal distribution. In case significance was recognized in ANOVA, the Student's t-test was performed in the levels of p<0.05 and p<0.01."}, "C57B1/6J mice [2]": {"test_system": "C57B1/6J mice", "assay": "Changes in body weight of mice after a single subcutaneous injection of TCDD", "assay_type": "in vivo", "method": "as §1, §2, §3, §4"}, "[3]": {"conditions": "TCDD 6.9 μg/kg + UDCA 0.125 wt %, 50 days"}},
  "data": [
    {"smiles": "C[C@H](CCC(=O)O)[C@H]1CC[C@H]2[C@@H]3[C@@H](O)C[C@@H]4C[C@H](O)CC[C@]4(C)[C@H]3CC[C@]12C", "note": "[UDCA, 3α, 7β-dihydroxy-5β-cholanoic acid]", "values": [
      {"measurement": "water uptake", "setting": "C57B1/6J mice [1]; TCDD 6.9 μg/kg + UDCA 0.125 wt %, 10 days", "value": "4.54 ± 0.71"},
      {"measurement": "water uptake", "setting": "C57B1/6J mice [1]; TCDD 6.9 μg/kg + UDCA 0.125 wt %, 20 days", "value": "3.75 ± 0.90"},
      {"measurement": "water uptake", "setting": "C57B1/6J mice [1]; TCDD 6.9 μg/kg + UDCA 0.125 wt %, 30 days", "value": "4.00 ± 0.00"},
      {"measurement": "water uptake", "setting": "C57B1/6J mice [1]; TCDD 6.9 μg/kg + UDCA 0.125 wt %, 40 days", "value": "4.00 ± 0.00"},
      {"measurement": "water uptake", "setting": "C57B1/6J mice [1]; [3]", "value": "4.06 ± 1.34"},
      {"measurement": "water uptake", "setting": "C57B1/6J mice [1]; TCDD 6.9 μg/kg + UDCA 0.125 wt %, 60 days", "value": "4.64 ± 0.51"},
      {"measurement": "water uptake", "setting": "C57B1/6J mice [1]; TCDD 6.9 μg/kg + UDCA 0.25 wt %, 10 days", "value": "4.27 ± 1.16"},
      {"measurement": "water uptake", "setting": "C57B1/6J mice [1]; TCDD 6.9 μg/kg + UDCA 0.25 wt %, 20 days", "value": "3.83 ± 1.04"},
      {"measurement": "water uptake", "setting": "C57B1/6J mice [1]; TCDD 6.9 μg/kg + UDCA 0.25 wt %, 30 days", "value": "4.00 ± 0.00"},
      {"measurement": "water uptake", "setting": "C57B1/6J mice [1]; TCDD 6.9 μg/kg + UDCA 0.25 wt %, 40 days", "value": "3.60 ± 0.57"},
      {"measurement": "water uptake", "setting": "C57B1/6J mice [1]; TCDD 6.9 μg/kg + UDCA 0.25 wt %, 50 days", "value": "4.28 ± 1.02"},
      {"measurement": "water uptake", "setting": "C57B1/6J mice [1]; TCDD 6.9 μg/kg + UDCA 0.25 wt %, 60 days", "value": "4.69 ± 0.43"},
      {"measurement": "water uptake", "setting": "C57B1/6J mice [1]; TCDD 6.9 μg/kg + UDCA 0.5 wt %, 10 days", "value": "4.12 ± 0.94"},
      {"measurement": "water uptake", "setting": "C57B1/6J mice [1]; TCDD 6.9 μg/kg + UDCA 0.5 wt %, 20 days", "value": "3.80 ± 0.70"},
      {"measurement": "water uptake", "setting": "C57B1/6J mice [1]; TCDD 6.9 μg/kg + UDCA 0.5 wt %, 30 days", "value": "4.00 ± 0.63"},
      {"measurement": "water uptake", "setting": "C57B1/6J mice [1]; TCDD 6.9 μg/kg + UDCA 0.5 wt %, 40 days", "value": "3.78 ± 0.31"},
      {"measurement": "water uptake", "setting": "C57B1/6J mice [1]; TCDD 6.9 μg/kg + UDCA 0.5 wt %, 50 days", "value": "4.35 ± 1.08"},
      {"measurement": "water uptake", "setting": "C57B1/6J mice [1]; TCDD 6.9 μg/kg + UDCA 0.5 wt %, 60 days", "value": "5.06 ± 0.70"},
      {"measurement": "water uptake", "setting": "C57B1/6J mice [1]; TCDD 27.5 μg/kg + UDCA 0.125 wt %, 10 days", "value": "3.67 ± 1.10"},
      {"measurement": "water uptake", "setting": "C57B1/6J mice [1]; TCDD 27.5 μg/kg + UDCA 0.125 wt %, 20 days", "value": "3.92 ± 1.13"},
      {"measurement": "water uptake", "setting": "C57B1/6J mice [1]; TCDD 27.5 μg/kg + UDCA 0.125 wt %, 30 days", "value": "4.30 ± 0.42"},
      {"measurement": "water uptake", "setting": "C57B1/6J mice [1]; TCDD 27.5 μg/kg + UDCA 0.125 wt %, 40 days", "value": "4.20 ± 0.28"},
      {"measurement": "water uptake", "setting": "C57B1/6J mice [1]; TCDD 27.5 μg/kg + UDCA 0.125 wt %, 50 days", "value": "4.44 ± 0.79"},
      {"measurement": "water uptake", "setting": "C57B1/6J mice [1]; TCDD 27.5 μg/kg + UDCA 0.125 wt %, 60 days", "value": "4.81 ± 0.26"},
      {"measurement": "water uptake", "setting": "C57B1/6J mice [1]; TCDD 27.5 μg/kg + UDCA 0.25 wt %, 10 days", "value": "4.04 ± 0.75"},
      {"measurement": "water uptake", "setting": "C57B1/6J mice [1]; TCDD 27.5 μg/kg + UDCA 0.25 wt %, 20 days", "value": "3.92 ± 0.63"},
      {"measurement": "water uptake", "setting": "C57B1/6J mice [1]; TCDD 27.5 μg/kg + UDCA 0.25 wt %, 30 days", "value": "4.00 ± 0.00"},
      {"measurement": "water uptake", "setting": "C57B1/6J mice [1]; TCDD 27.5 μg/kg + UDCA 0.25 wt %, 40 days", "value": "4.00 ± 0.00"},
      {"measurement": "water uptake", "setting": "C57B1/6J mice [1]; TCDD 27.5 μg/kg + UDCA 0.25 wt %, 50 days", "value": "4.44 ± 0.79"},
      {"measurement": "water uptake", "setting": "C57B1/6J mice [1]; TCDD 27.5 μg/kg + UDCA 0.25 wt %, 60 days", "value": "4.81 ± 0.26"},
      {"measurement": "water uptake", "setting": "C57B1/6J mice [1]; TCDD 27.5 μg/kg + UDCA 0.5 wt %, 10 days", "value": "3.91 ± 0.95"},
      {"measurement": "water uptake", "setting": "C57B1/6J mice [1]; TCDD 27.5 μg/kg + UDCA 0.5 wt %, 20 days", "value": "4.35 ± 0.98"},
      {"measurement": "water uptake", "setting": "C57B1/6J mice [1]; TCDD 27.5 μg/kg + UDCA 0.5 wt %, 30 days", "value": "4.44 ± 0.00"},
      {"measurement": "water uptake", "setting": "C57B1/6J mice [1]; TCDD 27.5 μg/kg + UDCA 0.5 wt %, 40 days", "value": "4.44 ± 0.00"},
      {"measurement": "water uptake", "setting": "C57B1/6J mice [1]; TCDD 27.5 μg/kg + UDCA 0.5 wt %, 50 days", "value": "4.41 ± 1.00"},
      {"measurement": "water uptake", "setting": "C57B1/6J mice [1]; TCDD 27.5 μg/kg + UDCA 0.5 wt %, 60 days", "value": "4.88 ± 0.33"},
      {"measurement": "water uptake", "setting": "C57B1/6J mice [1]; TCDD 110.0 μg/kg + UDCA 0.125 wt %, 10 days", "value": "4.03 ± 1.21"},
      {"measurement": "water uptake", "setting": "C57B1/6J mice [1]; TCDD 110.0 μg/kg + UDCA 0.125 wt %, 20 days", "value": "4.07 ± 0.64"},
      {"measurement": "water uptake", "setting": "C57B1/6J mice [1]; TCDD 110.0 μg/kg + UDCA 0.125 wt %, 30 days", "value": "3.33 ± 0.94"},
      {"measurement": "water uptake", "setting": "C57B1/6J mice [1]; TCDD 110.0 μg/kg + UDCA 0.25 wt %, 10 days", "value": "3.79 ± 1.06"},
      {"measurement": "water uptake", "setting": "C57B1/6J mice [1]; TCDD 110.0 μg/kg + UDCA 0.25 wt %, 20 days", "value": "3.83 ± 0.14"},
      {"measurement": "water uptake", "setting": "C57B1/6J mice [1]; TCDD 110.0 μg/kg + UDCA 0.25 wt %, 30 days", "value": "4.67 ± 0.94"},
      {"measurement": "water uptake", "setting": "C57B1/6J mice [1]; TCDD 110.0 μg/kg + UDCA 0.25 wt %, 40 days", "value": "4.14 ± 0.20"},
      {"measurement": "water uptake", "setting": "C57B1/6J mice [1]; TCDD 110.0 μg/kg + UDCA 0.5 wt %, 10 days", "value": "3.75 ± 0.50"},
      {"measurement": "water uptake", "setting": "C57B1/6J mice [1]; TCDD 110.0 μg/kg + UDCA 0.5 wt %, 20 days", "value": "3.42 ± 0.80"},
      {"measurement": "water uptake", "setting": "C57B1/6J mice [1]; TCDD 110.0 μg/kg + UDCA 0.5 wt %, 30 days", "value": "4.20 ± 0.28"},
      {"measurement": "water uptake", "setting": "C57B1/6J mice [1]; TCDD 110.0 μg/kg + UDCA 0.5 wt %, 40 days", "value": "3.50 ± 0.71"},
      {"measurement": "water uptake", "setting": "C57B1/6J mice [1]; TCDD 110.0 μg/kg + UDCA 0.5 wt %, 50 days", "value": "3.14 ± 0.59"},
      {"measurement": "water uptake", "setting": "C57B1/6J mice [1]; TCDD 110.0 μg/kg + UDCA 0.5 wt %, 60 days", "value": "3.32 ± 0.33"},
      {"measurement": "body weight", "setting": "C57B1/6J mice [2]; TCDD 6.9 μg/kg + UDCA 0.125 wt %, 0 day", "value": "19.77 ± 0.21"},
      {"measurement": "body weight", "setting": "C57B1/6J mice [2]; TCDD 6.9 μg/kg + UDCA 0.125 wt %, 12 days", "value": "21.95 ± 0.28"},
      {"measurement": "body weight", "setting": "C57B1/6J mice [2]; TCDD 6.9 μg/kg + UDCA 0.125 wt %, 22 days", "value": "23.16 ± 0.32"},
      {"measurement": "body weight", "setting": "C57B1/6J mice [2]; TCDD 6.9 μg/kg + UDCA 0.125 wt %, 32 days", "value": "24.15 ± 0.38"},
      {"measurement": "body weight", "setting": "C57B1/6J mice [2]; TCDD 6.9 μg/kg + UDCA 0.125 wt %, 39 days", "value": "25.21 ± 0.46"},
      {"measurement": "body weight", "setting": "C57B1/6J mice [2]; [3]", "value": "26.62 ± 0.56"},
      {"measurement": "body weight", "setting": "C57B1/6J mice [2]; TCDD 6.9 μg/kg + UDCA 0.125 wt %, 59 days", "value": "27.06 ± 0.60"},
      {"measurement": "Weight (body weight)", "setting": "C57B1/6J mice [2]; TCDD 6.9 μg/kg + UDCA 0.125 wt %, at sacrifice", "value": "24.12 ± 1.83", "unit": "g"},
      {"measurement": "body weight", "setting": "C57B1/6J mice [2]; TCDD 6.9 μg/kg + UDCA 0.25 wt %, 0 day", "value": "20.13 ± 0.34"},
      {"measurement": "body weight", "setting": "C57B1/6J mice [2]; TCDD 6.9 μg/kg + UDCA 0.25 wt %, 12 days", "value": "22.18 ± 0.38"}
    ]}
  ]
}
